How the values were obtained:
CDK19/CycC = CDK19/CycC (Homo sapiens, UniProt Q9BWU1); test: LanthaScreen europium kinase binding assay (FRET displacement), CDK19
Outline: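 His-tagged CDK19/CycC (5 nM) preincubated 30 min with 10 nM Alexa Fluor 665 ATP-site tracer, 2 nM biotin anti-his antibody and 2 nM europium-streptavidin, then titrated with compound (10^−4.5 to 10^−8 M). TR-FRET (ex 317, em 620/665 nm) read after 3 h at room temperature; duplicates, three independent runs, DMSO-normalized IC50.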

CDK8 = CDK8 (Homo sapiens, UniProt P49336); test: LanthaScreen europium kinase binding assay (FRET displacement), CDK8
[1] = tested on: human foreskin fibroblast 2088 cells; test: Cell death assay in normal fibroblasts (LD50); type: cell-based; settings: FIG. 1B
Procedure: Triple-Negative Breast Cancer Cell Death Assay to Measure LD50: The efficacy and selectivity of the disclosed compounds was evaluated in a TNBC cell line assay (MDA-MB-231) and/or human foreskin fibroblast 2088 cells, as was protein binding to human serum and microsomal stability of the disclosed compounds, as described herein.
Cells from a TNBC cell line (MDA-MB-231) (approximately 100,000 cells) and/or human foreskin fibroblast 2088 cells were seeded into each well of a 6-welled polystyrene treated tissue culture plate and were allowed to attach for 18 h before treatment with the test compound. Cells were then treated every 24 h with a fresh batch of media containing the test compound at one of the respective concentration(s) (Log10 Molar [C]): −5.0, −5.5, −6.0, −6.5, −7.0, −7.5 so that a complete dose-response could be calculated.
After 48 h of treatment, adherent cells were fixed with a 4% paraformaldehyde solution and stained with Hoechst 33342 nuclear dye (5 μg/mL). Each well was imaged at 10× magnification on a Keyence BZ-X710 microscope and live cell counts were performed in triplicate for each condition using automated ImageJ computational software. LD50 values represent the percentage of live cells after treatment with the test compound, which was calculated after normalization to the DMSO only treated control group.

Sequence of CDK19/CycC (Q9BWU1 whole entry): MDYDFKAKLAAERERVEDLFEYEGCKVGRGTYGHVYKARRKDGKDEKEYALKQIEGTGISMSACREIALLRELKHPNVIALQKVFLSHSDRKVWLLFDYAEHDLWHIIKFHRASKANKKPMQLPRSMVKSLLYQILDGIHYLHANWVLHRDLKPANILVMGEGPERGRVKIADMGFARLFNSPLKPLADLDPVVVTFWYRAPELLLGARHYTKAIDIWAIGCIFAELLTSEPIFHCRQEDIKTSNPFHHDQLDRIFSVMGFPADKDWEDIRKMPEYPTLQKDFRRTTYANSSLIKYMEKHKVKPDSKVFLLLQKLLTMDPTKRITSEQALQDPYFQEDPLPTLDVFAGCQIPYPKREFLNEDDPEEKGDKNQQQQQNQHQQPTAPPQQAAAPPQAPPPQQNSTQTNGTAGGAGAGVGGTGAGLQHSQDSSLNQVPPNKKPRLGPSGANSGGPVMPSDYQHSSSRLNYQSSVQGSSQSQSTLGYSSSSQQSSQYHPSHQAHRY
Sequence of CDK19/CycC (P24863 whole entry partner): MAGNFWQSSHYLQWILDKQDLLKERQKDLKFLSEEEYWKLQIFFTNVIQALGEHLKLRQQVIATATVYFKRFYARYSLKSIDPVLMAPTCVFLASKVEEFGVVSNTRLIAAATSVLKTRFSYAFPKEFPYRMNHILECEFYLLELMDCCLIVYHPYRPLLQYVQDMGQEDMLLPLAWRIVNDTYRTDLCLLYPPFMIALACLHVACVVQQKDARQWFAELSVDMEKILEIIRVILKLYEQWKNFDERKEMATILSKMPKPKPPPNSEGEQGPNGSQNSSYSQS
Sequence of CDK8 (P49336 whole entry): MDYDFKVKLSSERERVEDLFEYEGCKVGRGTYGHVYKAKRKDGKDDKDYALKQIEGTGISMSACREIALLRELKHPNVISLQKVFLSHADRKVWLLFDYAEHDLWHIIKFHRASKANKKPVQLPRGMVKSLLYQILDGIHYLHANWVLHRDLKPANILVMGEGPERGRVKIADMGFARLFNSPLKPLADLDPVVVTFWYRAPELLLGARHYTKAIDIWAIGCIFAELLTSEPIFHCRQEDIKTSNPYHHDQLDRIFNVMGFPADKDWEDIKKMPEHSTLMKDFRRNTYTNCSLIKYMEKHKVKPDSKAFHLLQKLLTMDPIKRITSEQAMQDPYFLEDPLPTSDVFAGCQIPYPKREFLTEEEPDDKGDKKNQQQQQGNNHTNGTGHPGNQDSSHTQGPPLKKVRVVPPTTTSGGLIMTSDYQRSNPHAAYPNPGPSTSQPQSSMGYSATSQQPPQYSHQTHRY
Sequence of CDK8 (P24863 whole entry partner): as the sequence (P24863 whole entry partner) above

CNC(=O)c1cc(Nc2cnc(Nc3ccc(CC(C)C)cc3)nc2)ccn1 [Compound A47]
CDK19 Selectivity (CDK19/CycC; CDK19/CDK8 selectivity based on IC50 values): 2.4
IC50 (CDK19/CycC; his-tagged CDK19/CycC 5 nM, tracer 10 nM, 3 h incubation): 308 nM
IC50 (CDK8): 737 nM
concentration at which significant fibroblast cell death was observed [1]: 10,000 nM
